Measured values taken from patent US11236094B2, “Substituted pyrrolo[2,1-f][1,2,4]triazines as FGFR inhibitors” (CSPC ZHONGQI PHARMACEUTICAL TECHNOLOGY (SHIJIAZHUANG) CO., …, priority 2017, dated 2022).
Like-named read-outs stand apart in the source and are kept apart here.

Assays:
human FGFR1 = human FGFR1 (Homo sapiens, UniProt P11362); assay: 33P isotope-labeled kinase activity test, wild-type FGFR1; conditions: 33P-ATP 5 μM, 120 minutes
Excerpt: (§1) Assay 1: Evaluation of Wild-Type Kinase Inhibitory Activity In Vitro

human FGFR4 = human FGFR4 (Homo sapiens, UniProt P22455); assay: 33P isotope-labeled kinase activity test, wild-type FGFR4; conditions: 33P-ATP 100 μM, 120 minutes
Excerpt: as §1

[1] = Pharmacokinetics in mice in vivo; conditions: female, mouse, plasma, Balb/c mice; for AUC: read-out: Area under the curve, AUC; for clearance: read-out: Clearance rate; for half-life: read-out: Half-life T1/2 (converted); for bioavailability: read-out: Bioavailability F
Experimental: Assay 3: Evaluation of Compounds' Pharmacokinetics
Experiment purpose: To test the pharmacokinetics of the compound in mice in vivo.
The pharmacokinetics profile in rodents after the intravenous injection and the oral administration of the compound was tested using a standard protocol. In experiments, the candidate compound was prepared as a clear solution, which was administered to the mice as a single intravenous injection and as an oral administration. The medium for the intravenous injection was 10% DMSO/10% solutol/80% water, and the medium for the oral administration was 0.5% sodium carboxymethylcellulose+0.2% Tween. The whole blood samples within 24 hours were collected. All blood samples were added to the well-labeled plastic centrifuge tubes, to which 0.5M K2-EDTA anticoagulant was added in advance. After the collection of blood samples, the blood samples were centrifuged at 4° C. at 3000 g for 10 minutes. The supernatant plasma was collected, promptly placed in the dry ice, and kept at a temperature of −20° C. or lower. The LC-MS/MS analysis method was used to quantitatively analyze the blood concentration, and the pharmacokinetics parameters, such as peak concentration, peak time, clearance rate, half-life, area under the curve and bioavailability were calculated.

Chain of human FGFR4 (P22455 22-802): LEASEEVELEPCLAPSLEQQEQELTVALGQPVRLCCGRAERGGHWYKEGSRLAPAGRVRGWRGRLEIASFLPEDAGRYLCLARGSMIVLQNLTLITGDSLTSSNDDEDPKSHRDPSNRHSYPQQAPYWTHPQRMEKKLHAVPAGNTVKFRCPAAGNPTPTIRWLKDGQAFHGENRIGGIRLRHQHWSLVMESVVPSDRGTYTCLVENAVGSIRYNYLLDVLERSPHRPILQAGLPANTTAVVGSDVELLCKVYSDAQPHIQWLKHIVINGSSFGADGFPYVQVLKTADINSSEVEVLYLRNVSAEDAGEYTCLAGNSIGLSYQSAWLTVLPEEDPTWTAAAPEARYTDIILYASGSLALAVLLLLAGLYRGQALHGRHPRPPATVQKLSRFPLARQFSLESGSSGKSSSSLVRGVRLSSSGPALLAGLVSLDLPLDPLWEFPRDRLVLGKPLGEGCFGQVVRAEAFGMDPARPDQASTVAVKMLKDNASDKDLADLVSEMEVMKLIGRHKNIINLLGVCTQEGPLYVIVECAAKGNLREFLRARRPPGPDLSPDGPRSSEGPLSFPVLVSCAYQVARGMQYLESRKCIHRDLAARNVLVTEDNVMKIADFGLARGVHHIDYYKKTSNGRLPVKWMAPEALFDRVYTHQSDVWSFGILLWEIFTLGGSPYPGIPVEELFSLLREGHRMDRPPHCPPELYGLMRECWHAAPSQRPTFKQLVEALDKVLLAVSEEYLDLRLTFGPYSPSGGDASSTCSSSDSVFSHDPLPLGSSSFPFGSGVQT
Chain of human FGFR1 (P11362 22-822): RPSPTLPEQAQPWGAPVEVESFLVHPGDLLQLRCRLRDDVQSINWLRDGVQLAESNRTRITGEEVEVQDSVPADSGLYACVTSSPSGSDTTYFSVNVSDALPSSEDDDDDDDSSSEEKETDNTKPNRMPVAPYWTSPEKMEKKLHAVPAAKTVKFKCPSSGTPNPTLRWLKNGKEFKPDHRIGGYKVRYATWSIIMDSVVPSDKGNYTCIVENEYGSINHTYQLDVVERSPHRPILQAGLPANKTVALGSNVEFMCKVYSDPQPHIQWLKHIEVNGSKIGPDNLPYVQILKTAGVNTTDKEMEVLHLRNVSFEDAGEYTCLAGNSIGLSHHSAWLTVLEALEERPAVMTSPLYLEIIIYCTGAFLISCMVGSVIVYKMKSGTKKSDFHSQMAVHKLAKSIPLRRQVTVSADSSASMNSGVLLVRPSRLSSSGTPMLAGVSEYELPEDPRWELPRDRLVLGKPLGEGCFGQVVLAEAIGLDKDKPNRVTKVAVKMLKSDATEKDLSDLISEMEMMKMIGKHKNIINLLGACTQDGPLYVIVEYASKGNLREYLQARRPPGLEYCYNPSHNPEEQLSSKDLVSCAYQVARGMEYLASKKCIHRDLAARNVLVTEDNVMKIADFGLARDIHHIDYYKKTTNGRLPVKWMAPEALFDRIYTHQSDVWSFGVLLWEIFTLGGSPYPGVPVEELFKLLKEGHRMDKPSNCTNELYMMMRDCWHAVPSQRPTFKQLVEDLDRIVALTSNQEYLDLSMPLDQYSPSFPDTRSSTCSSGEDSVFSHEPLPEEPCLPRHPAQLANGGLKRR

| Structure (SMILES) | IC50 (human FGFR1; IC50 FGFR1, wild-type kinase) [nM] | IC50 (human FGFR4) [nM] | also measured |
| --- | --- | --- | --- |
| C=CC(=O)N1CCC(c2cc(-c3sc4c(OC)cc(C)cc4c3C)c3c(N)ncnn23)C1 (single isomer, unassigned) [Example 7] | 0.7 | 8.5 |  |
| C=CC(=O)N1CCC(c2cc(-c3sc4c(OC)cc(C)cc4c3C)c3c(N)ncnn23)C1 (single isomer, unassigned) [Example 8] | 0.1 | 0.7 |  |
| COc1cc(C)cc2cc(-c3cc(C4CCN(C(=O)/C=C/CN(C)C)C4)n4ncnc(N)c34)sc12 (single isomer, unassigned) [Example 12] | 0.2 | 2.6 |  |
| COc1cc(C)cc2cc(-c3cc(C4CCN(C(=O)/C=C/CN(C)C)C4)n4ncnc(N)c34)sc12 (single isomer, unassigned) [Example 13] | 0.6 | 8.7 |  |
| COc1cc(C)cc2cc(-c3cc(C4CCN(C(=O)CC#N)C4)n4ncnc(N)c34)sc12 (single isomer, unassigned) [Example 15] | 1.5 | 6.2 | AUC ([1]; intravenous injection (3 npk)): 2.03 µM·h; clearance ([1]; intravenous injection (3 npk)): 52 mL/min/kg; half-life ([1]; intravenous injection (3 npk)): 48 min; AUC ([1]; oral administration (10 npk)): 4.8 µM·h; bioavailability ([1]; oral administration (10 npk)): 70% |
| COc1cc(C)cc2cc(-c3cc(C4CCN(C(=O)CC#N)C4)n4ncnc(N)c34)sc12 (single isomer, unassigned) [Example 16] | 0.8 | 5.3 |  |
| C=CC(=O)N1CCC(c2c(COC)c(-c3cc4cc(C)cc(OC)c4s3)c3c(N)ncnn23)C1 (single isomer, unassigned) [Example 18] | 0.1 | 0.2 |  |
| C=CC(=O)N1CCC(c2c(COC)c(-c3cc4cc(C)cc(OC)c4s3)c3c(N)ncnn23)C1 (single isomer, unassigned) [Example 19] |  | 0.1 | IC50 (human FGFR1; read-out: IC50 FGFR1, wild-type kinase): 0.1 nM |
| C=CC(=O)N1CCC(c2cc(-c3cc4cc(C)cc(OC)c4s3)c3c(N)ncnn23)C1 (centres unmarked) [Example 1] | 0.4 | 0.9 |  |
| C=CC(=O)N1CC[C@@H](c2cc(-c3cc4cc(Cl)cc(OC)c4s3)c3c(N)ncnn23)C1 [Example 4] | 0.6 | 4.1 |  |
| C=CC(=O)N1CC[C@H](c2cc(-c3cc4cc(Cl)cc(OC)c4s3)c3c(N)ncnn23)C1 [Example 5] | 0.3 | 0.7 |  |
| C=CC(=O)N1CCCC(c2cc(-c3cc4cc(C)cc(OC)c4s3)c3c(N)ncnn23)C1 (centres unmarked) [Example 6] | 1.7 | 5.4 |  |
| C=CC(=O)N1CC[C@H](c2cc(-c3sc4c(OC)cc(Cl)cc4c3C)c3c(N)ncnn23)C1 [Example 9] | 0.7 | 3.3 |  |
| CC#CC(=O)N1CC[C@@H](c2cc(-c3cc4cc(C)cc(OC)c4s3)c3c(N)ncnn23)C1 [Example 10] | 0.2 | 1.5 |  |
| CC#CC(=O)N1CC[C@H](c2cc(-c3cc4cc(C)cc(OC)c4s3)c3c(N)ncnn23)C1 [Example 11] | 0.1 | 0.1 |  |
| C=CC(=O)N1CCC(O)(c2cc(-c3cc4cc(C)cc(OC)c4s3)c3c(N)ncnn23)C1 (centres unmarked) [Example 14] | 0.8 | 6.6 |  |
| C=CC(=O)N1CC[C@H](c2cc(-c3nc4cc(OC)cc(OC)c4s3)c3c(N)ncnn23)C1 [Example 17] | > 10000 | > 10000 |  |

| Structure (SMILES) | IC50 (human FGFR1; IC50 FGFR1, wild-type kinase) [nM] | IC50 (human FGFR4) [nM] | also measured |
| --- | --- | --- | --- |
| CC#CC(=O)N1CCC(c2c(COC)c(-c3cc4cc(C)cc(OC)c4s3)c3c(N)ncnn23)C1 (centres unmarked) [Example 20] | 0.2 | 0.8 |  |
| CCC(=O)N1CC[C@H](c2cc(-c3cc4c(F)c(OC)cc(OC)c4s3)c3c(N)ncnn23)C1 [Example 21] | 6.6 | 138 |  |
| C=CC(=O)N1CC[C@@H](c2cc(-c3cc4c(F)c(OC)cc(OC)c4s3)c3c(N)ncnn23)C1 [Example 22] | 1.5 | 9.9 |  |
| C=CC(=O)N1CC[C@H](c2cc(-c3cc4c(F)c(OC)cc(OC)c4s3)c3c(N)ncnn23)C1 [Example 23] | 0.2 | 0.2 |  |
| CCC(=O)N1CC[C@@H](c2cc(-c3cc4c(F)c(OC)cc(OC)c4s3)c3c(N)ncnn23)C1 [Example 24] | 2.2 | 40 |  |
| C=CC(=O)N1CC[C@H](c2cc(-c3cc4cccc(OC)c4o3)c3c(N)ncnn23)C1 [Example 25] | 250 | 477 |  |
| CCC(=O)N1CC[C@@H](c2cc(-c3cc4cc(C)cc(OC)c4s3)c3c(N)ncnn23)C1 [Example 26] | 1.2 | 4.2 |  |
| CCC(=O)N1CC[C@H](c2cc(-c3cc4cc(C)cc(OC)c4s3)c3c(N)ncnn23)C1 [Example 27] | 4.7 | 67 |  |
| CCC(=O)N1CC[C@H](c2cc(-c3nc4cc(OC)cc(OC)c4s3)c3c(N)ncnn23)C1 [Example 28] | > 10000 | > 10000 |  |
| COc1cc(OC)c2sc(-c3cc([C@@H]4CCN(C(=O)/C=C/CN(C)C)C4)n4ncnc(N)c34)cc2c1F [Example 29] | 0.5 | 9.2 |  |
| COc1cc(OC)c2sc(-c3cc([C@H]4CCN(C(=O)/C=C/CN(C)C)C4)n4ncnc(N)c34)cc2c1F [Example 30] | 1.6 | 20 |  |
| COc1cc(C)cc2cc(-c3cc([C@@H]4CCN(C(=O)/C=C/CN5CCOCC5)C4)n4ncnc(N)c34)sc12 [Example 31] | 1.1 | 9.6 |  |
| COc1cc(C)cc2cc(-c3cc([C@H]4CCN(C(=O)/C=C/CN5CCOCC5)C4)n4ncnc(N)c34)sc12 [Example 32] | 4.7 | 80 |  |
| C=CC(=O)N1CC[C@H](c2cc(-c3cc4cccc(OC)c4s3)c3c(N)ncnn23)C1 [Example 33] | 0.5 | 0.9 |  |
| C=CC(=O)N1CC[C@@H](c2cc(-c3nc4cc(OC)cc(OC)c4s3)c3c(N)ncnn23)C1 [Example 34] | 126 | 462 |  |
| C=CC(=O)N1CC[C@H](n2nc(C#Cc3cc(OC)cc(OC)c3)c3c(N)ncnc32)C1 [Reference Example 1, reference compound] |  |  | AUC ([1]; intravenous injection (3 npk)): 5.29 µM·h; clearance ([1]; intravenous injection (3 npk)): 22 mL/min/kg; half-life ([1]; intravenous injection (3 npk)): 42 min; AUC ([1]; oral administration (10 npk)): 11.9 µM·h; bioavailability ([1]; oral administration (10 npk)): 69% |
